Patent US20050196466A1, “Process for inhibiting cell proliferation” (Pharmacyclics, Inc., priority 2004, published 2005)

What was measured:
A549 cells [1] = test: MTT assay, plateau phase A549 cells treated with 1-hydroxypyridine-2-thione, MGd and zinc; format: cell-based, human
Source text: (§1) Final mannitol concentration was 0.31% in all wells.

A549 cells [2] = test: MTT reduction proliferation assay, microtiter plate, A549 cells; format: cell-based, human; details: zinc by itself at 100 μM
Source text: as §1

Ramos cells = test: Cytotoxicity by propidium iodide uptake, flow cytometry; details: agent alone
Procedure: Gated cells with fluorescence at 585 nm from two cultures are shown for each time point. Error bars indicate standard deviation.
In other experiments (FIG. 11), Ramos cells grown in T-25 flasks were treated with a compound of Formula I (where M=Gd) (10 or 50 μM) and zinc (25 or 50 μM) for 1-2 days, Coulter counted, and analyzed by flow cytometry using propidium iodide.

SMILES | effect on A549 cells (A549 cells [1]; ZnHPT by itself at 0.625 μM, formed in situ from zinc acetate and 1-hydroxypyridine-2-thione, after one day (FIG. 12)) | cytotoxic dose of the zinc complex of 1-hydroxypyridine-2-thione (A549 cells [1]; in the presence of a compound of formula 1) | effect on A549 cells (A549 cells [2]; after one day) | effect on A549 cells (A549 cells [2]; after three days) | cytotoxicity as assessed by flow cytometry after staining with propidium iodide (Ramos cells)
c1cc[n+]2c(c1)[S][Zn]1([O]2)[O][n+]2ccccc2[S]1 [ZnHPT, Zinc complex of 1-hydroxypyridine-2-thione] | no significant effect | lowered |  |  | 
CC(=O)[O-].CC(=O)[O-].[Zn+2] [zinc, zinc acetate] |  |  | no significant effect | no significant effect | did not increase cytotoxicity
